Earlier results on one substance are cited in patent US20120172313A1, “TREATMENT OF PROLIFERATIVE DISEASES” (priority 2010, published 2012).

One data set concerns Sclerotinia sclerotiorum. The following applies: 100 μg/mL; cited from earlier work.
A further data set deals with Phoma betae. The following applies: 1 μg/mL; cited from earlier work.

Regarding “Rs-AFP2: antifungal plant defensin from radish seeds (QKLCQRPSGTWSGVCGNNNACKNQCIRLEKARHGSCNYVFPAHKCICYFPC; UniProt P30230 30-80, looked up)”, the “activity against Sclerotinia sclerotiorum” value in the data set with Sclerotinia sclerotiorum is reported as “ineffective”. For the same substance, the “growth of Phoma betae” value in the data set on Phoma betae was “inhibits the growth”.
